Key:
Test in all cases: Kinase profiling in a biochemical assay panel (mobility shift assays and ELISA), %-inhibition at 1 μM; selectivity entropy
[1] = target: T1, panel of more than 300 wild-type and mutant kinases (313 kinase panel) (Homo sapiens, UniProt P21709)
T1 sequence (P21709 26-976): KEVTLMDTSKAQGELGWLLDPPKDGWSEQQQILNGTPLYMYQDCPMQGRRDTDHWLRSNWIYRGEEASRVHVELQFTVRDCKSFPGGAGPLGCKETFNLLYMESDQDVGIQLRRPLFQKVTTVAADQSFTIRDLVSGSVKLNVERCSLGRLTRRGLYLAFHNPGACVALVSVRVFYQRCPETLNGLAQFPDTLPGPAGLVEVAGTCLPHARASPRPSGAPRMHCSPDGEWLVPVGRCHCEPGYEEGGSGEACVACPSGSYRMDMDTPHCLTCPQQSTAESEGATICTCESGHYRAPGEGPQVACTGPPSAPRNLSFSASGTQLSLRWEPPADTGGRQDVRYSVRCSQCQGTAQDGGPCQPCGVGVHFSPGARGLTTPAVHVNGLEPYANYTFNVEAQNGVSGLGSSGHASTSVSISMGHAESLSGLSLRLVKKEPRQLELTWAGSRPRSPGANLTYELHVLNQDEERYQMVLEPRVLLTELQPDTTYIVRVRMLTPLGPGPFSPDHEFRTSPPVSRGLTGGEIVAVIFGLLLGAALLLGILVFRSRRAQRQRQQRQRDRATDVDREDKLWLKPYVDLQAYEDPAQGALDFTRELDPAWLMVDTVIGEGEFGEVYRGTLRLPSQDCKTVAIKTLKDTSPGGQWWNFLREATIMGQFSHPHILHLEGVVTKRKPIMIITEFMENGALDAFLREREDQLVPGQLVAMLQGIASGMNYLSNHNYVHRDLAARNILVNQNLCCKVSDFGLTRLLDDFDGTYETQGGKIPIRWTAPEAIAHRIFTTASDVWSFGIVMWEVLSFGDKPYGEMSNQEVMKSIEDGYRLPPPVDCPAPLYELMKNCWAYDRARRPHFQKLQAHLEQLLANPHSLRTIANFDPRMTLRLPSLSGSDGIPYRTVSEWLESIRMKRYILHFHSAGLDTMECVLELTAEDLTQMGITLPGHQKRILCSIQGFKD

[2] = target: panel of more than 300 wild-type and mutant kinases (313 kinase panel) (Homo sapiens, UniProt O14578)
[3] = target: panel of more than 300 wild-type and mutant kinases (313 kinase panel) (Homo sapiens, UniProt Q15208)
[4] = target: T2, panel of more than 300 wild-type and mutant kinases (313 kinase panel) (Homo sapiens, UniProt P54753)
T2 sequence (P54753 34-998): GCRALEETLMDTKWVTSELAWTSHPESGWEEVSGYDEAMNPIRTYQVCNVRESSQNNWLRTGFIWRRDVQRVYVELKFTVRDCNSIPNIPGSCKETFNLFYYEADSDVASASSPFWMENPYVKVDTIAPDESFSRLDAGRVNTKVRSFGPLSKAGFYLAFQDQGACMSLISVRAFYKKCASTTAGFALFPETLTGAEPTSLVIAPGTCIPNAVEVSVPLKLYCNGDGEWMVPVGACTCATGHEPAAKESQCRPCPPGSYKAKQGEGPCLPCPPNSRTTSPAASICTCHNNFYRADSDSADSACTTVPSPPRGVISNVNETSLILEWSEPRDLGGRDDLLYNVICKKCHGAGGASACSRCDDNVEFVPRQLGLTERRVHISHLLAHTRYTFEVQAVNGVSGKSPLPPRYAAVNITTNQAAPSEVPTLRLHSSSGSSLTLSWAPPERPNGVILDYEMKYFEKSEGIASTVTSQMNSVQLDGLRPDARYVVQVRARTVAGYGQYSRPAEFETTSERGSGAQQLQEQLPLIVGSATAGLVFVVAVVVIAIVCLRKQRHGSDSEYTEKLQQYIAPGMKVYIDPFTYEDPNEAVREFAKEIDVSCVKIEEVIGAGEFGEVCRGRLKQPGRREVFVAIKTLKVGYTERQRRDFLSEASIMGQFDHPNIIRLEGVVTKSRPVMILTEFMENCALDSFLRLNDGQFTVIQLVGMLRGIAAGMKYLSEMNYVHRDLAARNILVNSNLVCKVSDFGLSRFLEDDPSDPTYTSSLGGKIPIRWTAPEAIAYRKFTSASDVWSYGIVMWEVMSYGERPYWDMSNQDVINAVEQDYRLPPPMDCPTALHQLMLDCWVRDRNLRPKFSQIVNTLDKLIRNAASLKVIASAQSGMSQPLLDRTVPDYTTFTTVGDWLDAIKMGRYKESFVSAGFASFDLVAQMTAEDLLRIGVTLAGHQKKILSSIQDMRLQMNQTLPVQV

Chain of panel of more than 300 wild-type and mutant kinases (313 kinase panel) (Homo sapiens, UniProt Q15208) (Q15208 whole entry, change not shown): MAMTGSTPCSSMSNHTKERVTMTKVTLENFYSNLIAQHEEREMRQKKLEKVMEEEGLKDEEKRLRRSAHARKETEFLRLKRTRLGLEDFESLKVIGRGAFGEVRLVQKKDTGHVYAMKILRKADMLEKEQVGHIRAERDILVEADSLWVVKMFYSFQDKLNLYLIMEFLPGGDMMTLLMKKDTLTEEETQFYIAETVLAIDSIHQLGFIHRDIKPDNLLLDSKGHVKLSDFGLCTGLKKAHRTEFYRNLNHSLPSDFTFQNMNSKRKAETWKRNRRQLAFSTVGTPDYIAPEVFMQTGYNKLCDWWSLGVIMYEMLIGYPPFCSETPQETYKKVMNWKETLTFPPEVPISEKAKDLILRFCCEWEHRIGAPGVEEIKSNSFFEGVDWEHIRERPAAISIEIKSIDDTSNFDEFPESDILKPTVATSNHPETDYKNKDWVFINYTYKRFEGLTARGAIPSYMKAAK
Chain of panel of more than 300 wild-type and mutant kinases (313 kinase panel) (Homo sapiens, UniProt O14578) (O14578 whole entry, change not shown): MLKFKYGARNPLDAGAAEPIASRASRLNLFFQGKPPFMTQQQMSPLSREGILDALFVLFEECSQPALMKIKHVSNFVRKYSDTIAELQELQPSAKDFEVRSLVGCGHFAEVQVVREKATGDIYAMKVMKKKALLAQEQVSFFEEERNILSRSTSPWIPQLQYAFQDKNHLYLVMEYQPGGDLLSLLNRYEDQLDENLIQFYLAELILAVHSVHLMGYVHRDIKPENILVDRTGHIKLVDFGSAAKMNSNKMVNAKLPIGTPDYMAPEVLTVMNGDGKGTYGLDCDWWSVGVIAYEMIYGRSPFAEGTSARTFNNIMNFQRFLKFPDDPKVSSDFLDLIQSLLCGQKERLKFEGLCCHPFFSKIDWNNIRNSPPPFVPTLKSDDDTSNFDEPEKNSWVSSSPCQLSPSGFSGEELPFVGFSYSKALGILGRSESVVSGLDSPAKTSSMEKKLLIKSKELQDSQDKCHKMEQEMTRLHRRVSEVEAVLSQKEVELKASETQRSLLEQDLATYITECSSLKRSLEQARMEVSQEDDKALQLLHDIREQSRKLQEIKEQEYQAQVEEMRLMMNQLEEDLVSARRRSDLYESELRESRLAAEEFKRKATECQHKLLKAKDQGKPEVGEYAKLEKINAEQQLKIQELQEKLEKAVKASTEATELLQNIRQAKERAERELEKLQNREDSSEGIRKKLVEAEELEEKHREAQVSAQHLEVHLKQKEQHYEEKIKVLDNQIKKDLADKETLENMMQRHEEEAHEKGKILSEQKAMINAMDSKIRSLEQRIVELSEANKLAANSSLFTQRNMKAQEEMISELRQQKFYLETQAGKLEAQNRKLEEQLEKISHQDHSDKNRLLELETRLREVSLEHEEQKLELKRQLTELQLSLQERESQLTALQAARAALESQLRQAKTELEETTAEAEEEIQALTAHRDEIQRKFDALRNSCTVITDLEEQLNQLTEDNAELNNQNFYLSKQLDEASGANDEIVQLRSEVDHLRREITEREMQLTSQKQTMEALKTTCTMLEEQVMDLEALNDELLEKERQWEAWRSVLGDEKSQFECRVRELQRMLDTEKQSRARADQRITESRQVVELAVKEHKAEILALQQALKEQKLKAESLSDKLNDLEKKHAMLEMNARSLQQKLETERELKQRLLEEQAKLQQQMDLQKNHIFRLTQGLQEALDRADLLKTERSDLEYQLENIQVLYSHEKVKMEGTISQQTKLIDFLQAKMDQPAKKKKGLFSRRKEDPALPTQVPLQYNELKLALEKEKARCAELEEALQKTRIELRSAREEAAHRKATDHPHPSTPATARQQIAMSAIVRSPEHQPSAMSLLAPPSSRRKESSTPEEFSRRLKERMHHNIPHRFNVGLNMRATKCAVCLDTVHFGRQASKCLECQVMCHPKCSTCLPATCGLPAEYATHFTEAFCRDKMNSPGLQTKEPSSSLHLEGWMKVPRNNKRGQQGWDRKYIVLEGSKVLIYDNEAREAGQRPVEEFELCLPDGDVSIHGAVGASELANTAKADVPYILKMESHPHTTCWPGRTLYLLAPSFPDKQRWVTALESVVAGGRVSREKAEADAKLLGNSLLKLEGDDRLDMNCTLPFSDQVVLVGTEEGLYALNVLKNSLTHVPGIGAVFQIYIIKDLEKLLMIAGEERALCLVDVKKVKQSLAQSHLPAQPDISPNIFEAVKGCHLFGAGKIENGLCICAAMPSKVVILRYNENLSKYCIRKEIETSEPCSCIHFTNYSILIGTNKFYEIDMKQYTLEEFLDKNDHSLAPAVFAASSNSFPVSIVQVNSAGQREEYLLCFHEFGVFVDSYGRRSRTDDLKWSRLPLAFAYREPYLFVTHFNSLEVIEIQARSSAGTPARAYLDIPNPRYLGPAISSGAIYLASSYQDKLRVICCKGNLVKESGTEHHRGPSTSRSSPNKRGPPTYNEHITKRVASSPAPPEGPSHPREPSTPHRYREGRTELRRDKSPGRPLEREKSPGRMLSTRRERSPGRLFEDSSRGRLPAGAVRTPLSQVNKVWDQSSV

CC(C)(C)c1nc(-c2cccc(NS(=O)(=O)c3c(F)cccc3F)c2F)c(-c2ccnc(N)n2)s1 [dabrafenib]
%-inhibition of EPHA1 ([1]; kinase EPHA1, compound at 1 μM): 44%
%-inhibition of CRIK ([2]; kinase CRIK, compound at 1 μM): -2.74%
%-inhibition of NDR1 ([3]; kinase NDR1, 1 μM): -0.891%
%-inhibition of EPHB3 ([4]; kinase EPHB3, compound at 1 μM): 3%

CCCS(=O)(=O)Nc1ccc(F)c(C(=O)c2c[nH]c3ncc(-c4ccc(Cl)cc4)cc23)c1F [vemurafenib]
%-inhibition of EPHA1 ([1]; kinase EPHA1, compound at 1 μM): -9%
%-inhibition of CRIK ([2]; kinase CRIK, compound at 1 μM): -6%
%-inhibition of NDR1 ([3]; kinase NDR1, 1 μM): -3.81%
%-inhibition of EPHB3 ([4]; kinase EPHB3, compound at 1 μM): 2%

Cc1nc(Nc2ncc(C(=O)Nc3c(C)cccc3Cl)s2)cc(N2CCN(CCO)CC2)n1 [dasatinib]
%-inhibition of EPHA1 ([1]; kinase EPHA1, compound at 1 μM): 101%
%-inhibition of CRIK ([2]; kinase CRIK, compound at 1 μM): 10%
%-inhibition of NDR1 ([3]; kinase NDR1, 1 μM): -1.85%

C[C@@H](Oc1cc(-c2cnn(C3CCNCC3)c2)cnc1N)c1c(Cl)ccc(F)c1Cl [crizotinib]
%-inhibition of EPHA1 ([1]; kinase EPHA1, compound at 1 μM): 97%
%-inhibition of CRIK ([2]; kinase CRIK, compound at 1 μM): -12%
%-inhibition of NDR1 ([3]; kinase NDR1, 1 μM): -1.48%
%-inhibition of EPHB3 ([4]; kinase EPHB3, compound at 1 μM): 5%

Cc1ccc(C(=O)Nc2ccc(CN3CCN(C)CC3)c(C(F)(F)F)c2)cc1C#Cc1cnc2cccnn12 [ponatinib]
%-inhibition of EPHA1 ([1]; kinase EPHA1, compound at 1 μM): 97%
%-inhibition of CRIK ([2]; kinase CRIK, compound at 1 μM): 61%
%-inhibition of EPHB3 ([4]; kinase EPHB3, compound at 1 μM): 101%

O=S(=O)(c1cccc2cnccc12)N1CCCNCC1 [fasudil]
%-inhibition of EPHA1 ([1]; kinase EPHA1, compound at 1 μM): 0.43%
%-inhibition of CRIK ([2]; kinase CRIK, compound at 1 μM): 7%
%-inhibition of NDR1 ([3]; kinase NDR1, 1 μM): 18%
%-inhibition of EPHB3 ([4]; kinase EPHB3, compound at 1 μM): -4%

COc1cc(Nc2c(C#N)cnc3cc(OCCCN4CCN(C)CC4)c(OC)cc23)c(Cl)cc1Cl [bosutinib]
%-inhibition of EPHA1 ([1]; kinase EPHA1, compound at 1 μM): 3%
%-inhibition of CRIK ([2]; kinase CRIK, compound at 1 μM): 73%
%-inhibition of NDR1 ([3]; 1 µM): -3.49%

CO[C@H]1C[C@@H]2CC[C@@H](C)[C@@](O)(O2)C(=O)C(=O)N2CCCC[C@H]2C(=O)O[C@H]([C@H](C)C[C@@H]2CC[C@@H](OCCO)[C@H](OC)C2)CC(=O)[C@H](C)/C=C(\C)[C@@H](O)[C@@H](OC)C(=O)[C@H](C)C[C@H](C)/C=C/C=C/C=C/1C [everolimus]
%-inhibition of EPHA1 ([1]; kinase EPHA1, compound at 1 μM): -10%
%-inhibition of CRIK ([2]; kinase CRIK, compound at 1 μM): -14%
%-inhibition of NDR1 ([3]; kinase NDR1, 1 μM): -7%
%-inhibition of EPHB3 ([4]; kinase EPHB3, compound at 1 μM): -5%

Cc1ccc(Nc2nccc(N(C)c3ccc4c(C)n(C)nc4c3)n2)cc1S(N)(=O)=O [pazopanib]
%-inhibition of EPHA1 ([1]; kinase EPHA1, compound at 1 μM): 54%
%-inhibition of CRIK ([2]; kinase CRIK, compound at 1 μM): -2%
%-inhibition of NDR1 ([3]; kinase NDR1, 1 μM): 2.49%
%-inhibition of EPHB3 ([4]; kinase EPHB3, compound at 1 μM): -0.529%

CNC(=O)c1cc(Oc2ccc(NC(=O)Nc3ccc(Cl)c(C(F)(F)F)c3)c(F)c2)ccn1 [regorafenib]
%-inhibition of EPHA1 ([1]; kinase EPHA1, compound at 1 μM): 55%
%-inhibition of CRIK ([2]; kinase CRIK, compound at 1 μM): -18%
%-inhibition of NDR1 ([3]; kinase NDR1, 1 μM): -9%
%-inhibition of EPHB3 ([4]; kinase EPHB3, compound at 1 μM): 22%

CC(=O)Nc1cccc(-n2c(=O)n(C3CC3)c(=O)c3c(Nc4ccc(I)cc4F)n(C)c(=O)c(C)c32)c1 [trametinib]
%-inhibition of EPHA1 ([1]; kinase EPHA1, compound at 1 μM): -1.61%
%-inhibition of CRIK ([2]; kinase CRIK, compound at 1 μM): -4.25%
%-inhibition of NDR1 ([3]; kinase NDR1, 1 μM): -1.68%
%-inhibition of EPHB3 ([4]; 1 µM): -5.47%

CCN(CC)CCNC(=O)c1c(C)[nH]c(/C=C2\C(=O)Nc3ccc(F)cc32)c1C [sunitinib]
%-inhibition of NDR1 ([3]; kinase NDR1, 1 μM): 9%

CO[C@H]1C[C@@H]2CC[C@@H](C)[C@@](O)(O2)C(=O)C(=O)N2CCCC[C@H]2C(=O)O[C@H]([C@H](C)C[C@@H]2CC[C@@H](OC(=O)C(C)(CO)CO)[C@H](OC)C2)CC(=O)[C@H](C)/C=C(\C)[C@@H](O)[C@@H](OC)C(=O)[C@H](C)C[C@H](C)/C=C/C=C/C=C/1C [temsirolimus]
%-inhibition of EPHA1 ([1]; kinase EPHA1, compound at 1 μM): -15%
%-inhibition of CRIK ([2]; kinase CRIK, compound at 1 μM): -15%
%-inhibition of NDR1 ([3]; kinase NDR1, 1 μM): -4.55%
%-inhibition of EPHB3 ([4]; kinase EPHB3, compound at 1 μM): -13%

CS(=O)(=O)CCNCc1ccc(-c2ccc3ncnc(Nc4ccc(OCc5cccc(F)c5)c(Cl)c4)c3c2)o1 [lapatinib]
%-inhibition of EPHA1 ([1]; kinase EPHA1, compound at 1 μM): 6%
%-inhibition of CRIK ([2]; kinase CRIK, compound at 1 μM): 7%
%-inhibition of NDR1 ([3]; kinase NDR1, 1 μM): -0.543%
%-inhibition of EPHB3 ([4]; kinase EPHB3, compound at 1 μM): 5%

COc1cc2c(Nc3ccc(Br)cc3F)ncnc2cc1OCC1CCN(C)CC1 [vandetanib]
%-inhibition of EPHA1 ([1]; kinase EPHA1, compound at 1 μM): 99%
%-inhibition of CRIK ([2]; kinase CRIK, compound at 1 μM): -2.19%
%-inhibition of NDR1 ([3]; kinase NDR1, 1 μM): -9%
%-inhibition of EPHB3 ([4]; kinase EPHB3, compound at 1 μM): 8%

COc1cc2nccc(Oc3ccc(NC(=O)C4(C(=O)Nc5ccc(F)cc5)CC4)cc3)c2cc1OC [cabozantinib]
%-inhibition of EPHA1 ([1]; kinase EPHA1, compound at 1 μM): 84%
%-inhibition of CRIK ([2]; kinase CRIK, compound at 1 μM): -10%
%-inhibition of NDR1 ([3]; kinase NDR1, 1 μM): -5.4%
%-inhibition of EPHB3 ([4]; kinase EPHB3, compound at 1 μM): 85%

N#CC[C@H](C1CCCC1)n1cc(-c2ncnc3[nH]ccc23)cn1 [ruxolitinib]
%-inhibition of EPHA1 ([1]; kinase EPHA1, compound at 1 μM): 43%
%-inhibition of CRIK ([2]; kinase CRIK, compound at 1 μM): 8%
%-inhibition of NDR1 ([3]; kinase NDR1, 1 μM): 88%
%-inhibition of EPHB3 ([4]; 1 µM): 2.73%

Cc1cn(-c2cc(NC(=O)c3ccc(C)c(Nc4nccc(-c5cccnc5)n4)c3)cc(C(F)(F)F)c2)cn1 [nilotinib]
%-inhibition of EPHA1 ([1]; kinase EPHA1, compound at 1 μM): 61%
%-inhibition of CRIK ([2]; kinase CRIK, compound at 1 μM): -16%
%-inhibition of NDR1 ([3]; kinase NDR1, 1 μM): -3%
%-inhibition of EPHB3 ([4]; kinase EPHB3, compound at 1 μM): 92%

C#Cc1cccc(Nc2ncnc3cc(OCCOC)c(OCCOC)cc23)c1 [erlotinib]
%-inhibition of EPHA1 ([1]; 1 µM): 28%
%-inhibition of CRIK ([2]; 1 µM): 21%
%-inhibition of NDR1 ([3]; 1 µM): 3.48%
%-inhibition of EPHB3 ([4]; 1 µM): 5%

Reference: publication PMC3961306, “Comparison of the Cancer Gene Targeting and Biochemical Selectivities of All Targeted Kinase Inhibitors Approved for Clinical Use” (PLoS ONE, 2014)
